From patent publication US6699834B1, “Method for treating cancer” (University of Maryland Biotechnology Institute, priority 1997, dated 2004)

Tests used:
[1] = tested on: lung cancer cells; experiment: Clonogenic assay, lung cancer cells; format: cell-based; conditions: compared to PBS alone
Method: The hCG preparations, fractions of the early pregnancy urine and hCG APL™ SUPERDEX™ 200 fractionations (described herein), and certain β-hCG peptides were tested on prostate, lung, breast, and kidney cancer cells in vitro, and on prostate tumors in nude mice. […] The preparations fractions and peptides were also assayed using a clonogenic assay in which cells were seeded in methylcellulose in the presence or absence of test substance and then colonies were counted after a certain period of time. Cells were also examined for apoptosis by confocal microscopy.

[2] = tested on: HIV-1; conditions: for HIV in vitro Inhibition: inhibition of HIV-1 replication in vitro (HIV-1 strains and HIV-1 primary isolates)
From the text: To prepare HIV infected cells for the in vitro assay of hCG preparations and β-hCG peptides and derivatives, primary PBMCs, macrophages, and CD4^+ T cells isolated from peripheral blood and the H9 human T cell line, were acutely or chronically infected with 8 different HIV-1 strains: 4 cell line adapted viruses, namely the macrophage tropic Ba-L strain (Gartner et al., 1986, Science 233:215-219) and the CD4^+ T cell tropic MN, RF, and IIIB strains (10^5 TCID50/ml) (Popovic et al., 1984, Science […]; Gallo et al.; 1984, Science 224:500-503); 2 isolates, Ju1083 and G3, from Nigerian AIDS patients passed once in a CD4^+ T cell line (Sub-T1); and 2 primary (“clinical”) isolates from AIDS patients from Trinidad which were never passed in any cell line and were used at a titer of 7.5×10^4TCID50/ml. In all experiments; HIV1 (10^5 TCID50/ml) was added to the cells(10^6 cells/ml) for a 2 hour incubation after which the virus infected cells were washed with 10 ml phosphate buffered saline (PBS) three times to eliminate extra cellular virus. The test inhibitor, i.e. the hCG or β-hCG peptide preparation was then added and the cells were incubated with the test inhibiter for 9 to 10 days with serial sampling. Cultures were assayed for p24 antigen on days 3 to 10.
Peptides of the α- and β-subunits (0.05 to 50 nmoles/ml), native α chain preparation, and various crude preparations of the native hCG heterodimer (0.01 to 1,000 IU) and the native β-hCG subunit (100 to 1,000 μg) were tested for effects on HIV-1 replication in acutely infected cells-by measuring change in viral antigen levels in response to the above noted preparations (FIGS. 4A-D and Table 3).
The fractions were then tested for anti-HIV, anti-KS and pro-hematopoietic activities in vitro. To assay for inhibition of HIV-1 replication in vitro, the HIV-1 […] viral strain was used to infect PBMCs and PM-1 cells (derived from the HUT-78 T-cell lymphoma cell line) at 10^3 TCID50/ml as described in detail herein.

[3] = tested on: HIV-1 transgenic mice; experiment: Survival, growth and weight of HIV-1 transgenic mouse pups; format: in vivo; conditions: HIV-1 transgenic pups
Method: (§1) The HIV-1 transgenic mice used for this study contain 7.4 kb of foreign DNA, including 5.1 kb of the HIV-1 proviral genome deleted in the gag and pol genes and 2.3 kb of vector (Dickie et al., 1991, Virology 185:109-119). […] In addition, these mice develop severe hyperkeratotic skin lesions with marked expression of gp 120 and nef genes (Kopp et al., 1993, AIDS Res. Hum. Retroviruses 9:267-275; Vasli et al., 1994, AIDS Res. Hum. Retroviruses 10:1241-1250).
(§2) Finally, certain fractions were tested for their ability to increase survival, promote weight gain and reduce HIV-1 gene expression in HIV-1 transgenic mice as described herein.
HIV-I transgenic pups administered hCG and hCG-related preparations for the first 5 days after birth through the mothers milk were monitored for survival at 10 days after birth.

[4] = tested on: hematopoietic progenitor cells; experiment: Hematopoietic progenitor clonogenic assays (CFU-GEMM, BFU-e, CFU-GM); format: cell-based, human; conditions: for Pro-hematopoiesis in vitro Enhancement: relative increase of hematopoietic colony cell number, hCG preparations 200 IU/ml, subunits and peptides 100 μg/ml
Method: The effect of hCG preparations and peptides was assayed on hematopoietic progenitor cells in vitro: Hematopoietic progenitor cells (2×10^5 cell/ml) were isolated from normal bone marrow and cord blood and seeded in methylcellulose. […] The hCG preparations were administered at 200 IU/ml and the β- and α-subunits and peptides were administered at 100 μg/ml. The native commercial preparation of hCG (APL™, Wyeth Ayerst) was pre-tested for anti-HIV and anti-KS activities. Aggregates containing more than 50 cells after 10 days of culture were counted as colonies.

[5] = tested on: HIV RNA and protein expression; experiment: HIV RNA and protein expression in HIV-1 transgenic mice; format: in vivo; conditions: for inhibition of HIV RNA and protein expression: inhibition of HIV RNA and protein expression in HIV-1 transgenic mice
From the text: as §1
Heterozygous transgenic mothers were treated with the hCG preparation subcutaneously twice weekly. Pups received hCG via the mother's milk.
Gene expression was assayed in total RNA extracted from the skin of Tg26 mice with RNAzol. One microgram of RNA was reverse transcribed into cDNA using random hexamer primers and […] reverse transcriptase (Life Technologies, MD) in a final volume of 30 μl. One tenth of the cDNA reactions were used for PCR amplification of various HIV gene sequences (env, tat, rev, nef and vif). In addition, glyceraldehyde 3-phosphate dehydrogenase (GAPHD) mRNA was amplified for each sample for normalization. Following 25 cycles of amplification, 10% of the PCR product was resolved by electrophoresis through 2% agarose gels and processed for Southern hybridization using FITC-labeled oligonucleotide probes complimentary to internal sequences of the amplicons. Detection was performed by chemiluminescence (Amersham) and relative mRNA levels determined by densitometry after normalization with GAPDH mRNA levels.
as §2

[6] = tested on: Kaposi's Sarcoma induced in mice; experiment: Kaposi's Sarcoma tumors induced in mice by KS Y-1 cells; format: in vivo; conditions: for KS in vivo: inhibition of Kaposi's Sarcoma induced in mice; for effect on KS tumors in mice (in words): mouse, in vivo
Method: The effects of the peptides on KS tumor cells were also evaluated in vivo in the KS mouse model. To induce KS tumors in the mice, 1×10^6/ml KS Y-1 cells in 50 μl PBS or saline were injected subcutaneously into immunodeficient mice (beige-XID-BNX mice). […] Methods for detection of apoptosis (from tissue biopsies) were used, as described in Lunardi-Iskandar et al.(1995, Nature 375:64-68). Briefly, the samples were stained in situ for the presence of cells with DNA fragmentation. Tissue slides from formalin-fixed tumors were treated with terminal deoxynucleotide transferase for extension of DNA ends (hydroxyl 3′) and incorporation of digoxigenin-11-dUTP according to the manufacturer's instructions (Oncor, Gaithersburg, Md.). Anti-digoxigenin antibody conjugated with the enzyme peroxidase allowed detection of apoptotic cells, which stain brown, whereas viable cells stain blue.
Certain fractions were tested for activity in reducing Kaposi's Sarcoma lesions in the Kaposi's Sarcoma mouse model as described herein. In this assay, starting one week after injection of the KS Y-1 cells to induce Kaposi's sarcoma formation, the mice were injected subcutaneously with 100 IU hCG. […] After one week of the week of treatment with the hCG fractions, the KS lesions were examined for cell apoptosis and regression as described herein.
Certain fractions of the APL™ hCG and early pregnancy urine were assayed for their ability to elicit apoptosis in Kaposi's Sarcoma lesions induced by injection of KS Y-1 cells in mice (n=3 mice for each treatment). The mice were administered 100 μl subcutaneously of the particular fraction each day for one week.

[7] = tested on: KS Y-1 and KS-SLK cells; experiment: Kaposi's Sarcoma clonogenic assay in cultured cells; format: cell-based, human; conditions: for inhibition of KS cell growth in clonogenic assays (in words): KS Y-1 and KS SLK; for KS in vitro: inhibition of Kaposi's Sarcoma cell growth in vitro in cultured cells
Method: Briefly, the KS Y-1 cells were obtained from mononuclear cells isolated from pleural effusion of an AIDS patient with KS in the lungs. After the depletion of T lymphocytes, monocytes/macrophages and fibroblasts using monoclonal antibodies against CD2, CD3, CD4, CD8, CD10 and CD14 membrane antigens and baby rabbit complement, the cells were cultured in the absence of exogenous growth factors to select for transformed cells. […] Clonogenic assays were performed by seeding the KS Y-1 or KS-SLK cells in methylcellulose (0.8%, v/v), incubating the cells for 10 days in the presence or absence of the hCC, β-hCG or β-hCG peptide preparations and then counting the number of well-formed colonies of triplicate wells formed after seeding with 5×10^4 cells.
To assay for activity against Kaposi's sarcoma cell growth in vitro, the clonogenic assay described herein was used with the KS Y-1 and KS-SLK cultured Kaposi's Sarcoma cell lines,.

Substance | colony formation [1] | inhibition of HIV-1 infection/replication in vitro (in words) [2] | HIV in vitro Inhibition [2] | weight gain / growth retardation and cachexia [3] | promotion of hematopoiesis (in words) [4] | Pro-hematopoiesis in vitro Enhancement [4] | inhibition of HIV RNA and protein expression [5] | HIV-1 gene / protein expression in transgenic mice (in words) ([5]; pups dosed via mother's milk) | KS in vivo [6] | effect on KS tumors in mice (in words) [6] | inhibition of KS cell growth in clonogenic assays (in words) [7] | KS in vitro [7]
3. 45-57: β-hCG amino acids 45-57 (SEQ ID NO:6) (LQGVLPALPQVVC) | inhibited colony formation | inhibit HIV-1 replication in vitro | ++ (“++” represents greater than 40% effect) | higher weight gain than untreated mice | directly promoted | ++ (“++” represents greater than 40% effect) | ++ (“++” represents greater than 40% effect) | considerable inhibition | ++ (“++” represents greater than 40% effect) | extensive cell death | strongest anti-tumor effects | ++ (“++” represents greater than 40% effect)
6. 45-57::109-119: β-hCG 45-57 linked at the C-terminus to the N-terminus of 109-119 (SEQ ID NO:30) (LQGVLPALPQVVCTCDDPRFQDSS) | inhibited colony formation | inhibit HIV-1 replication in vitro | ++ (“++” represents greater than 40% effect) | – | directly promoted | ++ (“++” represents greater than 40% effect) | ++ (“++” represents greater than 40% effect) | – | ++ (“++” represents greater than 40% effect) | significant anti-KS activity | strongest anti-tumor effects | ++ (“++” represents greater than 40% effect)
13. 6-16: β-hCG amino acids 6-16 (RPRCRPINATL; UniProt P0DN86 26-36, looked up, fragment) | – | – | − (“−” represents less than 10% effect) | – | – | − (“−” represents less than 10% effect) | − (“−” represents less than 10% effect) | – | − (“−” represents less than 10% effect) | – | – | − (“−” represents less than 10% effect)
8. 41-54: β-hCG amino acids 41-54 (SEQ ID NO:3) (MTRVLQGVLPALPQ) | – | – | − (“−” represents less than 10% effect) | – | – | − (“−” represents less than 10% effect) | − (“−” represents less than 10% effect) | – | − (“−” represents less than 10% effect) | – | – | − (“−” represents less than 10% effect)
